US20250011302A1, “INDOLE BIPYRIMIDINE COMPOUND, AND INTERMEDIATE THEREOF, PREPARATION METHOD THEREFOR AND USE THEREOF” (SHANGHAI ALLIST PHARMACEUTICALS CO., LTD., priority 2021, published 2025)

Tested on: Ba/F3 EGFR-Del19/T790M/C797S cells
Experiment: Proliferation inhibitory activity against Ba/F3 EGFR-Del19/T790M/C797S cells (PrestoBlue method)
Type: cell-based, murine
Settings: Mus musculus, Ba/F3 cells stably expressing EGFR Del19/T790M/C797S, 72 hours
Description: The proliferation inhibitory activity of the compounds in vitro against the Ba/F3 EGFR-Del19/T790M/C797S cells from the murine pro B cell line Ba/F3 that stably express EGFR proteins with Del19/T790M/C797S triple mutations, is determined by the PrestoBlue method.
Cell source: Ba/F3 EGFR-Del19/T790M/C797S cells are purchased from Crown Bioscience (Beijing) Co., Ltd.
Ba/F3 EGFR-Del19/T790M/C797S cells are cultured in RPMI1640 complete medium containing 10% fetal calf serum. Take Ba/F3 EGFR-Del19/T790M/C797S cells in the logarithmic growth phase, inoculate them in a 96-well plate at a cell density of 5000 cells/135 μl complete culture medium/well, and place them at a constant temperature incubator containing 5% CO2 at 37° C. for culturing for 24 hours. […]
Take out the 96-well cell culture plate from the CO2 constant temperature incubator, add 15 μl of Invitrogen™ PrestoBlue™ HS cell viability detection reagent (Cat. No.: P50201) to each well, and continue to incubate for 3 hours in the constant temperature incubator containing 5% CO2 at 37° C. Take out the 96-well cell culture plate and measure the fluorescence at the 560 nm excitation wavelength and 590 nm emission wavelength of a microplate reader. […]
Data were analyzed using GraphPad Prism 8.3 software, and nonlinear S-curve regression was used to fit the data to obtain a dose-effect curve, from which the IC50 value was calculated.

| IC50 [nM] | SMILES |
| --- | --- |
| 293 | C=CC(=O)Nc1cc(Nc2nccc(-c3cn(C)c4ccccc34)n2)c(OCC(F)(F)F)nc1N(C)CCN(C)CCC(=O)Nc1cc(Nc2nccc(-c3cn(C)c4ccccc34)n2)c(OCC(F)(F)F)nc1N(C)CCN(C)C [Compound 4] |
| 1860 | CN(C)CCN(C)c1nc(OCC(F)(F)F)c(Nc2nccc(-c3cn(C)c4ccccc34)n2)cc1NC(=O)CCN(C)CCN(C)c1nc(OCC(F)(F)F)c(Nc2nccc(-c3cn(C)c4ccccc34)n2)cc1N [Compound 1] |
